The numbers were not newly measured in patent US8216495B2, “Preparation method for solid dispersions” (Formac Pharmaceuticals N.V., priority 2008, dated 2012), which cites them from elsewhere.

Test in data set [1]: not given
This is another data set of the same source.

For data set [2] the following is noted: weak base.

≈ marks a conversion by molar mass, not a printed value.

Take `C=CC[C@@H]1/C=C(\C)C[C@H](C)C[C@H](OC)[C@H]2O[C@@](O)(C(=O)C(=O)N3CCCC[C@H]3C(=O)O[C@H](/C(C)=C/[C@@H]3CC[C@@H](O)[C@H](OC)C3)[C@H](C)[C@@H](O)CC1=O)[C@H](C)C[C@@H]2OC` [Tacrolimus]: the solubility in water result is recorded as “practically insoluble”. Besides, the solubility in ethanol result (ethanol) was “freely soluble”. Besides, for the setting “methanol and chloroform”, the “solubility in methanol and chloroform” value was “very soluble”. The absolute bioavailability result in data set [1] (5 mg dose taken twice a day, oral) is recorded as “approximately 17%”.

For `CCC(C)n1ncn(-c2ccc(N3CCN(c4ccc(OCC5COC(Cn6cncn6)(c6ccc(Cl)cc6Cl)O5)cc4)CC3)cc2)c1=O` (stereo not drawn) [Itraconazole], the aqueous solubility (pH=1) is 4 µg/mL (≈ 5.67 µM). Also, in data set [2], the pKa was 4.0.

`NC(=O)N1c2ccccc2C=Cc2ccccc21` [Carbamazepine, 5H-dibenz[b,f]azepine-5-carboxamide]: the solubility in water entry is recorded as “practically insoluble”. Also, where the note is “alcohol and acetone”, the “solubility in alcohol and acetone” value is “soluble”.

With `C#C[C@]1(O)CC[C@H]2[C@@H]3CCC4=Cc5oncc5C[C@]4(C)[C@H]3CC[C@@]21C` [Danazol, 17a-Pregna-2,4-dien-20-yno[2,3-d]-isoxazol-17-ol], in data set [1] (danazol administered orally), the half-life was 4 to 5 h, the “increase in plasma concentration on doubling the dose” value is on record as 30-40% and the “time of peak concentrations” value was not above 2 h.

Turning to `CC(=O)O[C@H]1C(=O)[C@@]2(C)[C@H]([C@H](OC(=O)c3ccccc3)[C@]3(O)C[C@H](OC(=O)[C@H](O)[C@@H](NC(=O)c4ccccc4)c4ccccc4)C(C)=C1C3(C)C)[C@]1(OC(C)=O)CO[C@@H]1C[C@@H]2O` [Paclitaxel], the solubility in water entry is reported as “insoluble”.
